From US6562115B2, “Azo dyes and their preparation and use” (Ilford Imaging Switzerland GmbH, priority 2000, dated 2003)

Assay: Dye solubility in deionised water
Format: physicochemical
Conditions: for solubility (in words): assessment of state-of-the-art dyes in the background section
Method: An excess of dye was vigorously stirred in deionised water for 1 hour at a temperature of 50° C. The mixture was then cooled down to a temperature of 20° C. and filtered. Dye solubility was determined spectroscopically in the clear filtered solution.

| Molecule | solubility in comparison to the known dye Acid Red 37 (comparison drawn from Table 3) | solubility (in words) | Solubility (in g per 100 ml of water) (excess dye stirred in deionised water 1 hour at 50° C., cooled to 20° C., filtered, determined spectroscopically) |
| --- | --- | --- | --- |
| Nc1ccc2cc(S(=O)(=O)[O-])cc(O)c2c1N=Nc1cc(NC(=O)CCC(=O)[O-])ccc1S(=O)(=O)[O-].[Na+].[Na+].[Na+] [Compound 120] | significantly higher | – | – |
| Nc1ccc2cc(S(=O)(=O)[O-])cc(O)c2c1N=Nc1ccc(Nc2nc(NCCS(=O)(=O)[O-])nc(NCCS(=O)(=O)[O-])n2)cc1S(=O)(=O)[O-].[Na+].[Na+].[Na+].[Na+] [II] | – | high solubility | – |
| Acid Red 37 | – | not sufficient | 5 g per 100 ml of water |
